According to patent US5622962A, “5α-reductase inhibitors” (priority 1995, dated 1997):
“And” between values parts separate entries of the source, which are not always exact repeats. Equal values may be shown once.

What was measured:
[1] = target: T1, Type I 5α-Reductase from Human Scalp (Homo sapiens, UniProt P18405); assay: Human Type I 5α-reductase assay (conversion of [3H]-testosterone to 5α-reduced metabolites); format: biochemical; conditions: 50 nM [3H]-testosterone, pH 7.5, 25°, 180 min, compared to control reaction mixtures; for inhibition at 0.3 µM: pH 7.5, 0.3 μM, read-out: percent inhibition of Type I AR
T1 construct: Scalp punch biopsies from graft recipient sites were obtained from human hair transplant procedures; from tissue; host or cells: human scalp punch biopsies (hair transplant graft recipient sites), homogenate, 100,000×g pellet
T1 sequence (P18405 1-259): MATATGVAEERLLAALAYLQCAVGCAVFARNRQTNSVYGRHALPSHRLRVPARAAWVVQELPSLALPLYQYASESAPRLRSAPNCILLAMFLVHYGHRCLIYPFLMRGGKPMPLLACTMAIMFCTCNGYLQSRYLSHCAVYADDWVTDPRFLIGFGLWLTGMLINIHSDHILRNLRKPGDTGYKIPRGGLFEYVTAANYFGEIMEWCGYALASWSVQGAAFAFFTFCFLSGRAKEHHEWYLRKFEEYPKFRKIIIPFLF

[2] = target: T2, Type II 5α-Reductase from Human Prostate (Homo sapiens, UniProt P31213); assay: Human Type II 5α-reductase assay (conversion of [3H]-testosterone to 5α-reduced metabolites); format: biochemical; conditions: sodium acetate pH 5.5, 25°, 30 min, compared to control reaction mixtures; for inhibition at 0.3 µM: pH 5.5, 0.3 μM, read-out: percent inhibition of Type II AR
T2 construct: The same procedure as above was used for preparations using tissue from prostate surgery; from tissue; host or cells: human prostate tissue from surgery, homogenate, 100,000×g pellet
T2 sequence (P31213 1-254): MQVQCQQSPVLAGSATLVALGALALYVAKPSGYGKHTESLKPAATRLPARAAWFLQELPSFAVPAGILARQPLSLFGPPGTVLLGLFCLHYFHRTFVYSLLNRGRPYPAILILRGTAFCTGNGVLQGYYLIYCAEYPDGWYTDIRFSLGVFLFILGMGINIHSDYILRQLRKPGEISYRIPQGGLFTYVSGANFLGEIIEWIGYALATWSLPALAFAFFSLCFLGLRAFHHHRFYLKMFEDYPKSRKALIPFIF

| Structure (SMILES) | inhibition at 0.3 µM [1] [%] | inhibition at 0.3 µM [2] [%] | percent inhibition of Type I AR ([1]; 0.3 μM) [%] | percent inhibition of Type II AR ([2]; 0.3 μM) |
| --- | --- | --- | --- | --- |
| CN1C(=O)CC[C@]2(C)c3ccc(-c4cc5c6c(c4)N(C(=O)c4ccccc4)C[C@@H]6C[C@H](N)C5)cc3CC[C@@H]12 [Example 226, (+)-(4aR)-(10bR)-4-methyl-8-(2aR,4S-1-benzoyl-4-amino-2,2a,3,4-tetrahydrobenz[cd]-1H-indol-7-yl)-10b-methyl-1,2,3,4,4a,5,6,10b-octahydrobenzo[f]quinolin-3-one] | 16 | 8 | – | – |
| CN1C(=O)CC[C@]2(C)c3ccc(CC(=O)Nc4ccccc4)cc3CC[C@@H]12 [Example 277, (4aR)-(10bR)-4,10b-dimethyl-8-phenylaminocarbonylmethyl-1,2,3,4,4a,5,6,10b-octahydrobenzo[f]quinolin-3-one] | 42 | 40 | – | – |
| CC(=O)N1CCc2cc(-c3ccc4c(c3)CC[C@H]3N(C)C(=O)CC[C@]43C)ccc21 [Example 238, (+)-(4aR)-(10bR)-4-methyl-8-(1-acetylindolin-5-yl)-10b-methyl-1,2,3,4,4a,5,6,10b-octahydrobenzo[f]quinolin-3-one] | 72 | 29 | – | – |
| CN1C(=O)CC[C@]2(C)c3ccc(-c4nc5ccc(Cl)cc5s4)cc3CC[C@@H]12 [Example 265, (+)-(4aR)-(10bR)-4-methyl-8-(2-[6-chloro]benzothiazolyl)-10b-methyl-1,2,3,4,4a,5,6,10b-octahydrobenzo[f]quinolin-3-one] | 78 | 40 | – | – |
| CN1C(=O)CC[C@]2(C)c3ccc(NC(=O)c4ccccc4)cc3CC[C@@H]12 [Example 267, (+)-(4aR)-(10bR)-4,10b-dimethyl-8-benzoylamino-1,2,3,4,4a,-5,6,10b-octahydrobenzo[f]quinolin-3-one] | 34 | 51 | – | – |
| CN1C(=O)CC[C@]2(C)c3ccc(-c4cc(C(F)(F)F)nc5c(C(F)(F)F)cccc45)cc3CC[C@@H]12 [Example 203, (+)-(4aR)-(10bR)-4-methyl-8-[2,8-bis(trifluoromethyl)-4-quinolinyl]-10b-methyl-1,2,3,4,4a,5,6,10b-octahydrobenzo[f]-quinolin-3-one] | 8 | 34 | – | – |
| CN1C(=O)CC[C@]2(C)c3ccc(-c4cc(F)c(F)cc4F)cc3CC[C@@H]12 [Example 128, (+)-(4aR)-(10bR)-4-methyl-8-(2,4,5-trifluorophenyl)-10b-methyl-1,2,3,4,4a,5,6,10b-octahydrobenzo[f]quinolin-3-one] | 82 | 40 | – | – |
| CCCc1cccc2sc(Sc3ccc4c(c3)CC[C@H]3N(C)C(=O)CC[C@]43C)nc12 [Example 186, (+)-(4aR)-(10bR)-4-methyl-8-(4-propyl-2-benzothiazolylthio)-10b-methyl-1,2,3,4,4a,5,6,10b-octahydrobenzo[f]quinolin-3-one] | 90 | 79 | – | – |
| CN1C(=O)CC[C@]2(C)c3ccc(Sc4n[nH]c5ccccc45)cc3CC[C@@H]12 [Example 156, (+)-(4aR)-(10bR)-4-methyl-8-(3-indazolylthio)-10b-methyl-1,2,3,4,4a,5,6,10b-octahydrobenzo[f]quinolin-3-one] | 71 | 70 | – | – |
| Cc1ccc(Sc2ccc3c(c2)CC[C@H]2NC(=O)CC[C@]32C)cc1 [Example 6, (+)-(4aR)-(10bR)-8-(4-methylphenylthio)-10b-methyl-1,2,3,4,4a,5,6,10b-octahydrobenzo [f]quinolin-3-one] | 11 | 23 | – | – |
| COc1ccccc1-c1ccc2c(c1)CC[C@H]1N(C)C(=O)CC[C@]21C [Example 39, (+)-(4aR)-(10bR)-4-methyl-8-(2-methoxyphenyl)-10b-methyl-1,2,3,4,4a,5,6,10b-octahydrobenzo[f]quinolin-3-one] | 81 | 34 | – | – |
| C[C@]12CCC(=O)N[C@@H]1CCc1cc(Sc3ccccc3Cl)ccc12 [Example 7] | 49 | 42 | – | – |
| Cc1ccc(-c2ccc3c(c2)CC[C@H]2N(C)C(=O)CC[C@]32C)c2ccccc12 [Example 65, (+)-(4aR)-(10bR)-4-methyl-8-(1-[4-methyl]naphthyl)-10b-methyl-1,2,3,4,4a,5,6,10b-octahydrobenzo[f]quinolin-3-one] | 79 | 42 | – | – |
| CN1C(=O)CC[C@]2(C)c3ccc(Sc4nccc5sccc45)cc3CC[C@@H]12 [Example 175, (+)-(4aR)-(10bR)-4-methyl-8-(4-thieno [3,2-c]pyridylthio)-10b-methyl-1,2,3,4,4a,5,6,10b-octahydrobenzo[f]quinolin-3-on] | 58 | 40 | – | – |
| CN1C(=O)CC[C@]2(C)c3ccc(C(=O)Oc4ccccc4)cc3CC[C@@H]12 [Example 145, (+)-(4aR)-(10bR)-4-methyl-8-phenoxycarbonyl-10b-methyl-1 2,3,4,4a,5,6,10b-octahydrobenzo[f]quinolin-3-one] | 85 | 41 | – | – |
| CN1C(=O)CC[C@]2(C)c3ccc(-c4n[nH]c5ccccc45)cc3CC[C@@H]12 [Example 257, (+)-(4aR)-(10bR)-4-methyl-8-(3-indazolyl)-10b-methyl-1,2,3,4,4a,5,6,10b-octahydrobenzo[f]quinolin-3-one] | 36 | 58 | – | – |
| CN1C(=O)CC[C@]2(C)c3ccc(-c4c(F)c(F)c(F)c(F)c4F)cc3CC[C@@H]12 [Example 205, (+)-(4aR)-(10bR)-4-methyl-8-(2,3,4,5,6-pentafluorophenyl)-10b-methyl-1,2,3,4,4a,5,6,10b-octahydrobenzo[f]quinolin-3-one] | 100 | 37 | – | – |
| COc1cc(-c2ccc3c(c2)CC[C@H]2N(C)C(=O)CC[C@]32C)ccc1O [Example 36, (+)-(4aR)-(10bR)-4-methyl-8-(4-hydroxy-3-methoxyphenyl)-10b-methyl-1,2,3,4,4a,5,6,10b-octahydrobenzo[f]quinolin-3-one] | 41 | 52 | – | – |
| Cc1cccc(Sc2ccc3c(c2)CC[C@H]2N(C)C(=O)CC[C@]32C)c1 [Example 102, (+)-(4aR)-(10bR)-4,10b-dimethyl-8-(3-methylphenylthio)-1,2,3,4,-4a,5,6,10b-octahydrobenzo[f]quinolin-3-one] | 92 | 61 | – | – |
| CN1C(=O)CC[C@]2(C)c3ccc(Sc4ccc(Cl)cc4)cc3CC[C@@H]12 [Example 95, (+)-(4aR)-(10bR)-4,10b-dimethyl-8-(4-chlorophenylthio)-1,2,3,4,-4a,5,6,10b-octahydrobenzo[f]quinolin-3-one] | 95 | 35 | – | – |
| C[C@]12CCC(=O)N[C@@H]1CCc1cc(SCc3ccccc3)ccc12 [Example 23, (4aR)-(10bR)-8-benzylthio-10b-methyl-1,2,3,4,4a,5,6,10b-octahydrobenzo[f]quinolin-3-one] | 59 | 31 | – | – |
| CN1C(=O)CC[C@]2(C)c3ccc(-c4cc(F)cc(F)c4F)cc3CC[C@@H]12 [Example 130, (+)-(4aR)-(10bR)-4-methyl-8-(2,3,5-trifluorophenyl)-10b-methyl-1,2,3,4,4a,5,6,10b-octahydrobenzo[f]quinolin-3-one] | 83 | 29 | – | – |
| CN1C(=O)CC[C@]2(C)c3ccc(-c4ccc(SCc5ccc([N+](=O)[O-])cc5)cc4)cc3CC[C@@H]12 [Example 233, (+)-(4aR)-(10bR)-4-methyl-8-(4-[4-nitrobenzyl]thiophenyl)-10b-methyl-1,2,3,4,4a,5,6,10b-octahydrobenzo[f]quinolin-3-one] | 95 | 38 | – | – |
| CN1C(=O)CC[C@]2(C)c3ccc(-c4c(F)cccc4F)cc3CC[C@@H]12 [Example 228, (+)-(4aR)-(10bR)-4-methyl-8-(2,6-difluorophenyl)-10b-methyl-1,2,3,4,4a,5,6,10b-octahydrobenzo[f]quinolin-3-one] | 77 | 32 | – | – |
| CN1C(=O)CC[C@]2(C)c3ccc(Sc4ccc5nc6ccccc6c(=O)n5n4)cc3CC[C@@H]12 [Example 176, (+)-(4aR)-(10bR)-4-methyl-8-(10-oxo-10H-2-pyridazino[6,1-b]-quinazolinylthio)-10b-methyl-1,2,3,4,4a,5,6,10b-octahydrobenzo[f]quinolin-3-one] | 25 | 15 | – | – |
| CN1C(=O)CC[C@]2(C)c3ccc(Sc4nc5c(Cl)cccc5s4)cc3CC[C@@H]12 [Example 164, (+)-(4aR)-(10bR)-4-methyl-8-(4-chloro-2-benzothiazolylthio)-10b-methyl-1,2,3,4,4a,5,6,10b-octahydrobenzo[f]quinolin-3-one] | 85 | 86 | 87 | 85% and 79% |
